Data: US20260098058A1, “COMPOUND - DIAGNOSTIC MARKER FOR OVARIAN CANCER, METHOD FOR DETECTING ENZYMATIC ACTIVITY, METHOD FOR DIAGNOSIS OF OVARIAN CANCER, KIT COMPRISING THE COMPOUND, USES OF THE COMPOUND AND METHOD FOR THE TREATMENT OF OVARIAN CANCER” (Urteste S.A., priority 2022, published 2026)
Values joined by “and” are separate entries in the source; they are usually repeats but may differ in a detail not shown here. Equal entries are not always repeated. “Also recorded” adds a separate entry of the source. Starred links: 1 amine or outer side, 2 acyl side, 3 side chain; linkers in the order of their positions; H or OH if unused. Non-standard residues stand in square brackets, D forms with d. No end group written: not given here. Benzoyl(5-NH,2-NO2) = O=C(c1cc(N[*:1])ccc1[N+](=O)[O-])[*:2]; 2Abz = Nc1ccccc1C(=O)O

Assays:
[1] = tested on: urine taken from a person diagnosed with ovarian cancer; assay: RP HPLC analysis of substrate cleavage in urine; format: biochemical, human; conditions: randomly selected urine sample from a person diagnosed with ovarian cancer (FIG. 1)
[2] = tested on: urine samples from subjects with ovarian cancer or another neoplastic disease; assay: Selectivity of substrate cleavage by cancer type (urine samples); format: biochemical, human; conditions: intestine, kidney, prostate, pancreas, stomach, lung, uterine body and liver cancer samples (FIG. 3)
From the text: Arabic numerals indicate the numbers of given cancer types. The samples tested for each type of cancer were derived from 20 different patients for each of the tested cancers. The results are mean values for given cancer types.
(§1) The activity of the novel compounds according to the invention was studied in a group of 20 subjects diagnosed with ovarian cancer using the representative compound according to the invention. […] The remaining compounds according to the invention are characterized by the analogous mechanism of action. For this purpose, the representative compound according to the invention, ABZ^1-Asp^2-Thr^3-Phe^4-Ile^5-NH2, was dissolved in dimethyl sulfoxide (at a concentration of 0.5 mg/mL) and then […] of the solution was mixed with […] of a buffer (200 mM Tris-HCl, pH 8.0) and […] of urine from a subject suffering from ovarian cancer. The measurement was performed on a 96-well plate designed for measuring absorbance and each sample was analysed in triplicate at the temperature of 37° C. The duration of the measurement was 60 minutes. During the measurement, the wavelength characteristic for the chromophore (ANB-NH2) being released was monitored at the wavelength 405 nm (range 380-430 nm).
Furthermore, the dependence of the cleavage selectivity of the substrate, i.e. the compound according to the invention, on the cancer type being examined, was studied. […]

[3] = tested on: enzymatic (proteolytic) activity in urine from a subject suffering from ovarian cancer; assay: Absorbance measurement of substrate hydrolysis in urine from subjects with ovarian cancer; format: biochemical, human; conditions: for Results of absorbance analysis (rate of hydrolysis of the substrate): 405 nm, 37° C., 60 minutes, pH 8.0, triplicate
Protocol: as §1

[4] = tested on: urine samples taken from healthy persons (without a cancer diagnosis); assay: Absorbance measurement of substrate hydrolysis in urine from healthy subjects; format: biochemical, human; conditions: for Results of absorbance analysis (rate of hydrolysis of the substrate): 405 nm, 37° C., 60 minutes, pH 8.0, triplicate
[5] = tested on: enzyme(s) in the studied material; assay: Dependence of substrate hydrolysis on reaction pH; format: biochemical; conditions: FIG. 4
Protocol: Furthermore, measurements concerning the dependence of the proteolytic activity of the representative compound according to the invention on the reaction pH were performed.

ABZ-Asp-Thr-Phe-Ile-ANB-NH2 ([2Abz]DTFI-{Benzoyl(5-NH,2-NO2)-NH2})
cleavage products by RP HPLC [1]: cleaves into the peptide fragment ABZ-Asp-Thr-Phe-Ile-OH and the chromophore group of the compound (ANB-NH2)
cleavage / increase in absorbance with samples of other cancers [2]: is not subject to cleavage
colour intensity of the solution (absorbance in time) ([3]; all urine samples from persons diagnosed with ovarian cancer (samples 1-20)): increased with time
efficiency of cleavage of the substrate between samples ([3]; samples 3 and 17 compared with samples 1 or 13): less efficiently
Results of absorbance analysis (rate of hydrolysis of the substrate) ([3]; urine sample 1, ovarian cancer): 0.0066 and 0.006 and 0.0065
Results of absorbance analysis (rate of hydrolysis of the substrate) ([3]; urine sample 2, ovarian cancer): 0.052 and 0.042 and 0.051
Results of absorbance analysis (rate of hydrolysis of the substrate) ([3]; urine sample 3, ovarian cancer): 0.0087 and 0.0088 and 0.0086
Results of absorbance analysis (rate of hydrolysis of the substrate) ([3]; urine sample 4, ovarian cancer): 0.0069 and 0.0051 and 0.0067
Results of absorbance analysis (rate of hydrolysis of the substrate) ([3]; urine sample 5, ovarian cancer): 0.044 and 0.038 and 0.042
Results of absorbance analysis (rate of hydrolysis of the substrate) ([3]; urine sample 6, ovarian cancer): 0.037 and 0.022 and 0.028
Results of absorbance analysis (rate of hydrolysis of the substrate) ([3]; urine sample 8, ovarian cancer): 0.014 and 0.022 and 0.015
Results of absorbance analysis (rate of hydrolysis of the substrate) ([3]; urine sample 9, ovarian cancer): 0.0088 and 0.0101 and 0.0092
Results of absorbance analysis (rate of hydrolysis of the substrate) ([3]; urine sample 10, ovarian cancer): 0.009 and 0.0093 and 0.0085
Results of absorbance analysis (rate of hydrolysis of the substrate) ([3]; urine sample 11, ovarian cancer): 0.0123 and 0.0112 and 0.0145
Results of absorbance analysis (rate of hydrolysis of the substrate) ([3]; urine sample 12, ovarian cancer): 0.0216 and 0.021 and 0.0199
Results of absorbance analysis (rate of hydrolysis of the substrate) ([3]; urine sample 13, ovarian cancer): 0.0045 and 0.0052 and 0.0048
Results of absorbance analysis (rate of hydrolysis of the substrate) ([3]; urine sample 14, ovarian cancer): 0.005 and 0.0061 and 0.0058
Results of absorbance analysis (rate of hydrolysis of the substrate) ([3]; urine sample 15, ovarian cancer): 0.0017 and 0.0015 and 0.0021
Results of absorbance analysis (rate of hydrolysis of the substrate) ([3]; urine sample 16, ovarian cancer): 0.0079 and 0.0084 and 0.0072
Results of absorbance analysis (rate of hydrolysis of the substrate) ([3]; urine sample 18, ovarian cancer): 0.0073 and 0.0068 and 0.0075
Results of absorbance analysis (rate of hydrolysis of the substrate) ([3]; urine sample 19, ovarian cancer): 0.055 and 0.051 and 0.048
Results of absorbance analysis (rate of hydrolysis of the substrate) ([3]; urine sample 20, ovarian cancer): 0.0077 and 0.0075 and 0.0081
increase in absorbance within the diagnostic range ([4]; 20 urine samples from healthy subjects (Z21 to Z40)): no increase in absorbance; also recorded: does not lead to an increase in absorbance
Results of absorbance analysis (rate of hydrolysis of the substrate) ([4]; urine sample Z21, healthy subject): 0.000000
Results of absorbance analysis (rate of hydrolysis of the substrate) ([4]; urine sample Z22, healthy subject): 0.000000
Results of absorbance analysis (rate of hydrolysis of the substrate) ([4]; urine sample Z23, healthy subject): 0.000000
Results of absorbance analysis (rate of hydrolysis of the substrate) ([4]; urine sample Z24, healthy subject): 0.000000
Results of absorbance analysis (rate of hydrolysis of the substrate) ([4]; urine sample Z25, healthy subject): 0.000000
Results of absorbance analysis (rate of hydrolysis of the substrate) ([4]; urine sample Z26, healthy subject): 0.000000
Results of absorbance analysis (rate of hydrolysis of the substrate) ([4]; urine sample Z27, healthy subject): 0.000000
Results of absorbance analysis (rate of hydrolysis of the substrate) ([4]; urine sample Z28, healthy subject): 0.000000
Results of absorbance analysis (rate of hydrolysis of the substrate) ([4]; urine sample Z29, healthy subject): 0.000000
Results of absorbance analysis (rate of hydrolysis of the substrate) ([4]; urine sample Z30, healthy subject): 0.000000
Results of absorbance analysis (rate of hydrolysis of the substrate) ([4]; urine sample Z31, healthy subject): 0.000000
Results of absorbance analysis (rate of hydrolysis of the substrate) ([4]; urine sample Z32, healthy subject): 0.000000
Results of absorbance analysis (rate of hydrolysis of the substrate) ([4]; urine sample Z33, healthy subject): 0.000000
Results of absorbance analysis (rate of hydrolysis of the substrate) ([4]; urine sample Z34, healthy subject): 0.000000
Results of absorbance analysis (rate of hydrolysis of the substrate) ([4]; urine sample Z35, healthy subject): 0.000000
Results of absorbance analysis (rate of hydrolysis of the substrate) ([4]; urine sample Z36, healthy subject): 0.000000
Results of absorbance analysis (rate of hydrolysis of the substrate) ([4]; urine sample Z37, healthy subject): 0.000000
Results of absorbance analysis (rate of hydrolysis of the substrate) ([4]; urine sample Z38, healthy subject): 0.000000
Results of absorbance analysis (rate of hydrolysis of the substrate) ([4]; urine sample Z39, healthy subject): 0.000000
Results of absorbance analysis (rate of hydrolysis of the substrate) ([4]; urine sample Z40, healthy subject): 0.000000
dependence of the hydrolysis level of the substrate on pH [5]: maximum activity at alkaline pH
